# Measurements from patent US7935724B2, “Thiophene and benzothiophene hydroxamic acid derivatives” (Merck HDAC Research, LLC, priority 2003, dated 2011).
# Target: T1, histone deacetylase, subtype 1 (HDAC1) (Homo sapiens, UniProt Q13547)
# T1 construct: Flag; made in house
# Assay: HDAC1-Flag assay (in vitro deacetylation assay)
# Format: biochemical
# Details: Table 1, benzothiophene backbone; concentration for 50% inhibition of deacetylation; substrate at Km; unit inferred, text gives nm; read-out: HDAC Inhibition
# Method: Novel compounds were tested for their ability to inhibit histone deacetylase, subtype 1 (HDAC1) using an in vitro deacetylation assay. The enzyme source for this assay was an epitope-tagged human HDAC1 complex immuno-purified from stably expressing mammalian cells. The substrate consisted of a commercial product containing an acetylated lysine side chain (BIOMOL Research Laboratories, Inc., Plymouth Meeting, Pa.). Upon deacetylation of the substrate by incubation with the purified HDAC1 complex, a fluorophore is produced that is directly proportional to the level of deacetylation.
# T1 sequence (Q13547 whole entry): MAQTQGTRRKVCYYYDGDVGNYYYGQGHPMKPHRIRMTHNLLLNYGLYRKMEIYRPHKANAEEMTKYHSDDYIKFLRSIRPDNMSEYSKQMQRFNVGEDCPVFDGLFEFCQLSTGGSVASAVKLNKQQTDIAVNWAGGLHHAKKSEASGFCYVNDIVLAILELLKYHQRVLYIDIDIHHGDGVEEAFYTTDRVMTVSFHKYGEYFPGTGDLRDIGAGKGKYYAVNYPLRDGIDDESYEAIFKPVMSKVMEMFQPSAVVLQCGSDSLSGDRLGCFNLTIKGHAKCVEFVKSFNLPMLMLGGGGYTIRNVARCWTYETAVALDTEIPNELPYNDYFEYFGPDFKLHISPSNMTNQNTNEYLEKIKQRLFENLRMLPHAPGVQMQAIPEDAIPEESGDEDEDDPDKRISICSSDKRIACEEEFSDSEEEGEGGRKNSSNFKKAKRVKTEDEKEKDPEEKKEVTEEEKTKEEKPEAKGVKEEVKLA
row,IC50 [nM],SMILES
1,154 ± 8.4,O=C(NCCCCc1ccccc1)c1ccc2sc(C(=O)NO)cc2c1 [Compound 175]
2,90 ± 11.3,O=C(NCCCc1ccccc1)c1ccc2cc(C(=O)NO)sc2c1 [Compound 160]
3,53 ± 7,O=C(NCc1ccccc1)c1ccc2cc(C(=O)NO)sc2c1 [Compound 92]
4,428 ± 102,O=C(NCCC(c1ccccc1)c1ccccc1)c1ccc2sc(C(=O)NO)cc2c1 [Compound 174]
5,76 ± 21.2,O=C(NCc1ccccc1)c1ccc2sc(C(=O)NO)cc2c1 [Compound 111]
6,144 ± 63.7,O=C(NCCc1cc2ccccc2[nH]1)c1ccc2cc(C(=O)NO)sc2c1 [Compound 128]
7,129 ± 18.3,O=C(NCCc1c[nH]c2ccccc12)c1ccc2sc(C(=O)NO)cc2c1 [Compound 173]
8,94 ± 5.6,COc1cccc(CNC(=O)c2ccc3sc(C(=O)NO)cc3c2)c1 [Compound 167]
9,52.5 ± 10.6,O=C(NO)c1cc2cc(NS(=O)(=O)c3ccc4ccccc4c3)ccc2s1 [Compound 17]
10,30.3 ± 6.5,O=C(NCc1nc2ccccc2[nH]1)c1ccc2cc(C(=O)NO)sc2c1 [Compound 133]
11,4140 ± 1890,O=C(Nc1nc(-c2ccccc2)cs1)c1ccc2cc(C(=O)NO)sc2c1 [Compound 183]
12,63.5 ± 4.9,O=C(NCc1ccc(Cl)cc1)c1ccc2sc(C(=O)NO)cc2c1 [Compound 171]
13,1360 ± 47.3,O=C(NC1CCc2ccccc21)c1ccc2sc(C(=O)NO)cc2c1 (stereo not drawn) [Compound 172]
14,155 ± 13.4,O=C(NCCc1ccccc1)c1ccc2sc(C(=O)NO)cc2c1 [Compound 105]
15,413,O=C(Nc1ccc2sc(C(=O)NO)cc2c1)c1ccc2ccccc2c1 [Compound 41]
16,185 ± 52.3,O=C(/C=C/c1ccccc1)Nc1ccc2sc(C(=O)NO)cc2c1 [Compound 16]
17,79.5 ± 33.2,O=C(Cc1ccc(Cl)cc1)Nc1ccc2sc(C(=O)NO)cc2c1 [Compound 95]
18,280,COc1ccc(C(=O)Nc2ccc3cc(C(=O)NO)sc3c2)cc1OC [Compound 48]
19,1070 ± 21.9,O=C(Nc1cccc2cccnc12)c1ccc2cc(C(=O)NO)sc2c1 [Compound 182]
20,102 ± 24,O=C(NO)c1cc2cc(NS(=O)(=O)c3cccc4ccccc34)ccc2s1 [Compound 27]
21,72,O=C(NCc1ccccc1)Nc1ccc2sc(C(=O)NO)cc2c1 [Compound 40]
22,113 ± 33.2,O=C(Nc1ccc2cc(C(=O)NO)sc2c1)OCc1ccccc1 [Compound 30]
23,58,O=C(NCCc1ccccc1)c1ccc2cc(C(=O)NO)sc2c1 [Compound 161]
24,922 ± 174,O=C(NC1CCc2ccccc21)c1ccc2cc(C(=O)NO)sc2c1 (stereo not drawn) [Compound 138]
25,56.5 ± 16.2,O=C(Cc1ccc(F)cc1)Nc1ccc2sc(C(=O)NO)cc2c1 [Compound 84]
26,106 ± 13.4,O=C(Nc1ccc2sc(C(=O)NO)cc2c1)c1ccccc1 [Compound 3]

# The remaining lines, values behind:
row,SMILES,IC50 [nM]
1,Nc1ccccc1NC(=O)c1cc2ccccc2s1 [Compound 103],1820 ± 508
2,CC(C)C(=O)Nc1ccc2cc(C(=O)NO)sc2c1 [Compound 9],156 ± 33.2
3,O=C(NCC(c1ccccc1)c1ccccc1)c1ccc2cc(C(=O)NO)sc2c1 [Compound 130],162 ± 40.3
4,O=C(NCCc1ccccn1)c1ccc2cc(C(=O)NO)sc2c1 [Compound 134],146 ± 10.3
5,O=C(NO)c1cc2ccc(C(=O)N3CCC(Cc4ccccc4)CC3)cc2s1 [Compound 190],170 ± 38.8
6,CCOC(=O)N1CCN(CC(=O)Nc2ccc3cc(C(=O)NO)sc3c2)CC1 [Compound 122],163 ± 35.2
7,O=C(NO)c1cc2cc(N(Cc3ccccc3)Cc3ccccc3)ccc2s1 [Compound 21],949 ± 834
8,O=C(NO)c1cc2ccc(C(=O)N3CCN(Cc4ccccc4)CC3)cc2s1 [Compound 191],453 ± 114
9,O=C(CN(CCc1ccccc1)Cc1ccccc1)Nc1ccc2cc(C(=O)NO)sc2c1 [Compound 117],206 ± 50.9
10,CN(O)C(=O)c1cc2ccc(N(C)C(=O)Cc3ccccc3)cc2s1 [Compound 113],30775 ± 7
11,COC(=O)c1ccc2sc(C(=O)NO)cc2c1 [Compound 45],737 ± 143
12,O=C(CN1CCN(c2ccccc2)CC1)Nc1ccc2cc(C(=O)NO)sc2c1 [Compound 46],37
13,COc1ccc(CN(Cc2ccc3cc(C(=O)NO)sc3c2)C2CCOCC2)cc1 [Compound 194],76
14,O=C(NO)c1cc2cc(CNCC(c3ccccc3)c3ccccc3)ccc2s1 [Compound 152],415 ± 91.6
15,O=C(NO)c1cc2cc(CNc3cccc(OCc4ccccc4)c3)ccc2s1 [Compound 165],269 ± 63.6
16,COc1ccc(OC)c(CC(=O)Nc2ccc3cc(C(=O)NO)sc3c2)c1 [Compound 51],62
17,O=C(CN1CCCN(C(=O)OCc2ccccc2)CC1)Nc1ccc2cc(C(=O)NO)sc2c1 [Compound 121],184 ± 58.2
18,O=C(NO)c1cc2cc(N(Cc3ccccc3)Cc3ccccc3)ccc2s1 [Compound 20],1650 ± 1160
19,O=C(NO)c1cc2ccc(C(=O)N3CCN(c4ccc(Cl)cc4)CC3)cc2s1 [Compound 158],441 ± 98.2
20,O=C(NO)c1cc2ccccc2s1 [Compound 1],672 ± 98.9

row,SMILES,IC50 [nM]
1,CN(O)C(=O)c1cc2ccc(NC(=O)Cc3ccccc3)cc2s1 [Compound 102],14400
2,O=C(Cc1cccc(F)c1)Nc1ccc2cc(C(=O)NO)sc2c1 [Compound 50],14
3,O=C(NO)c1cc2ccc(COCc3ccccc3)cc2s1 [Compound 184],199 ± 35.3
4,Cc1ccc(S(=O)(=O)Nc2ccc3cc(C(=O)NO)sc3c2)cc1 [Compound 43],60.5 ± 2.1
5,O=C(NO)c1cc2cc(CNCCN3CCOCC3)ccc2s1 [Compound 163],734 ± 34.6
6,O=C(NO)c1cc2ccc(NS(=O)(=O)Cc3ccccc3)cc2s1 [Compound 11],41 ± 11.3
7,O=C(NO)c1ccc2sc(C(=O)NO)cc2c1 [Compound 42],424
8,O=C(CN1CCN(c2cccc(Cl)c2)CC1)Nc1ccc2cc(C(=O)NO)sc2c1 [Compound 120],97 ± 21
9,Cc1ccc(S(=O)(=O)Nc2ccc3sc(C(=O)NO)cc3c2)cc1 [Compound 44],162 ± 54.4
10,COc1ccc(N2CCN(CC(=O)Nc3ccc4cc(C(=O)NO)sc4c3)CC2)cc1 [Compound 124],177 ± 16
11,O=C(NO)C(=O)Nc1ccc2cc(C(=O)NO)sc2c1 [Compound 24],1170 ± 214
12,O=C(NO)c1cc2ccc(NC(=O)C3(c4ccc(Cl)cc4)CC3)cc2s1 [Compound 125],164 ± 1.4
13,CCOC(=O)Nc1ccc2sc(C(=O)NO)cc2c1 [Compound 34],238 ± 2.8
14,O=C(CN1CCc2ccccc2C1)Nc1ccc2cc(C(=O)NO)sc2c1 [Compound 47],24
15,COc1ccc(CC(=O)Nc2ccc3cc(C(=O)NO)sc3c2)cc1OC [Compound 49],35
16,CC(=O)N1CCN(CC(=O)Nc2ccc3cc(C(=O)NO)sc3c2)CC1 [Compound 114],150 ± 12.7
17,O=C(NO)c1cc2cc(CNCc3nc4ccccc4[nH]3)ccc2s1 [Compound 141],116 ± 3.5
18,O=C(Cc1ccccn1)Nc1ccc2cc(C(=O)NO)sc2c1 [Compound 109],59 ± 15.5
19,O=C(NO)c1cc2cc(CNC(c3ccccc3)c3ccccc3)ccc2s1 [Compound 140],869 ± 108
20,O=C(NCc1ccccn1)c1ccc2cc(C(=O)NO)sc2c1 [Compound 94],85.7 ± 23.5

# Same assay, conditions: Table 2, thiophene backbone; concentration for 50% inhibition of deacetylation; substrate at Km; unit inferred, text gives nm; read-out: HDAC Inhibition
row,IC50 [nM],SMILES
1,444 ± 54.4,COc1cccc(-c2ccc(C(=O)NO)s2)c1 [Compound 55]
2,70,O=C(/C=C/c1ccc(C(=O)NO)s1)NCCCc1ccccc1 [Compound 66]
3,1000,O=C(NO)c1ccc(-c2cccc(CN(Cc3ccccc3)Cc3ccccc3)c2)s1 [Compound 61]
4,363 ± 16.9,O=C(NO)c1ccc(NC(=O)c2cccc3ccccc23)s1 [Compound 57]
5,730 ± 127,O=C(Nc1ccc(C(=O)NO)s1)c1ccc2ccccc2c1 [Compound 58]
6,461,O=C(NO)c1ccc(-c2cccc(CN(Cc3ccccc3)Cc3ccnc4ccccc34)c2)s1 [Compound 71]
7,206,O=C(/C=C/c1ccc(C(=O)NO)s1)NCc1ccccc1 [Compound 64]
8,417,O=C(NO)c1ccc(-c2cccc(CN3CCc4ccccc4C3)c2)s1 [Compound 68]
9,920 ± 569,O=C(NO)c1ccc(-c2cccc(CN(CCCc3ccccc3)Cc3ccnc4ccccc34)c2)s1 [Compound 75]
10,41,O=C(/C=C/c1ccc(C(=O)NO)s1)NCCc1ccccc1 [Compound 65]
11,481,O=C(CCc1ccc(C(=O)NO)s1)Nc1ccccc1 [Compound 80]
12,1450 ± 111,O=C(CCc1ccc(C(=O)NO)s1)NCC1CCCCC1 [Compound 196]
13,120,O=C(/C=C/c1ccc(C(=O)NO)s1)NCC1CCCCC1 [Compound 67]
14,570,O=C(NO)c1ccc(-c2cccc(CN(CCc3ccccc3)Cc3cnc4ccccc4c3)c2)s1 [Compound 72]
15,397,O=C(/C=C/c1ccc(C(=O)NO)s1)Nc1ccccc1 [Compound 63]
16,9260 ± 1180,O=C(NO)c1cc(-c2ccccc2)cs1 [Compound 199]
17,933 ± 22.6,O=C(NO)c1ccc(-c2cccc(CN(CCc3ccccc3)Cc3ccccc3)c2)s1 [Compound 62]
18,581,O=C(CCc1ccc(C(=O)NO)s1)NCC(c1ccccc1)c1ccccc1 [Compound 83]
19,690,O=C(CCc1ccc(C(=O)NO)s1)NCCc1ccccc1 [Compound 81]
20,526,O=C(CCc1ccc(C(=O)NO)s1)NCCCc1ccccc1 [Compound 82]
21,666,O=C(/C=C/c1ccc(C(=O)NO)s1)NC1CCCCC1 [Compound 79]
22,1010,O=C(NO)c1ccc(-c2cccc(CN(CCCc3ccccc3)Cc3ccccc3)c2)s1 [Compound 76]
23,714 ± 122,O=C(Nc1ccc(C(=O)NO)s1)c1ccccc1 [Compound 56]
24,399,O=C(NO)c1ccc(-c2cccc(CN(Cc3ccccc3)Cc3cnc4ccccc4c3)c2)s1 [Compound 70]
